{"source": "patent US5723719A", "about": "“Transgenic mouse as model for diseases involving dopaminergic dysfunction” (Health Research Inc., priority 1995, dated 1998)", "key": {"dopamine D2 receptor": {"target": "T1, dopamine D2 receptor (Mus musculus, UniProt P61168)", "T1 construct": "from tissue; host or cells: striatum of homozygous transgenic (TgX15, chakragati) mice and normal heterozygous litter-mates", "T1 sequence (P61168 whole entry)": "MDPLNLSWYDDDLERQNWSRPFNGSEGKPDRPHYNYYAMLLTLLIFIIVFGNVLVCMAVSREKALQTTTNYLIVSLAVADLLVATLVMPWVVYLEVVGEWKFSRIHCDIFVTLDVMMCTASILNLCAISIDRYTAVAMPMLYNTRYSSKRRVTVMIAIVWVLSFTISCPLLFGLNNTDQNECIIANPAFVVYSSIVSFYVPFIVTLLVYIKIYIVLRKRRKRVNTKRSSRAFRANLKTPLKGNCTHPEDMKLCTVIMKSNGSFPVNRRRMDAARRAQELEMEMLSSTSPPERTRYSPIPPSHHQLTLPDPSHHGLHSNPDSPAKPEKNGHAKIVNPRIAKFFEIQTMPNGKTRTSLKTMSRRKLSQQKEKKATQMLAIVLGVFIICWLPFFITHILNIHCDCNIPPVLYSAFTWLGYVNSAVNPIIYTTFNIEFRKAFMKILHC", "assay": "Radioligand binding assay of dopamine D2 receptor binding sites in striatum", "conditions": "mean ± s.e.m., read-out: KD (dissociation constant between ligand and receptor)", "description": "Radioligand binding assays were performed to analyze the density of dopamine D2 receptor binding sites in the striatum of mice of the present invention and normal heterozygous mice. […] The density of dopamine D2 binding sites are assayed by the ability of the striata to maximally bind ^[MUT]-methylspiperone (Bmax). Dissociation constants (KD) between the ligand and receptor were also measured."}, "6-OHDA-lesioned rodents": {"system": "6-OHDA-lesioned rodents", "conditions": "cited from earlier work"}, "chakragati mice": {"system": "chakragati mice", "assay": "Effect of apomorphine treatment on chakragati mice", "type": "in vivo, mouse", "conditions": "chakragati mice versus normal control mice"}, "[1]": {"conditions": "rats unilaterally depleted of dopamine by 6-hydroxydopamine lesions (Ungerstedt 1971)"}}, "note": "Where two headings read alike, the source gives them in different places.", "data": [{"smiles": "CN1CN(c2ccccc2)C2(CCN(CCCC(=O)c3ccc(F)cc3)CC2)C1=O", "note": "[^3 H-N-methylspiperone]", "values": [{"measurement": "Kd", "setting": "dopamine D2 receptor; striata of heterozygous litter-mates", "result": "73 ± 8", "unit": "pM"}, {"measurement": "Kd", "setting": "dopamine D2 receptor; striata of homozygous transgenic mice", "result": "81 ± 13", "unit": "pM"}]}, {"smiles": "CC(N)Cc1ccccc1", "note": "(stereo not drawn) [amphetamine]", "values": [{"measurement": "Circling behavior elicited", "setting": "6-OHDA-lesioned rodents; [1]", "result": "high rates of circling behavior can be elicited"}]}, {"smiles": "CN1CCc2cccc3c2[C@H]1Cc1ccc(O)c(O)c1-3", "note": "[apomorphine]", "values": [{"measurement": "Circling behavior elicited", "setting": "6-OHDA-lesioned rodents; 6-OHDA-lesioned rodents", "result": "elicits robust circling behavior"}, {"measurement": "Circling behavior elicited", "setting": "6-OHDA-lesioned rodents; [1]", "result": "high rates of circling behavior can be elicited"}, {"measurement": "Effect of treatment on chakragati mice compared to normal control mice (circling)", "setting": "chakragati mice", "result": "not significantly differ compared to the normal control mice"}]}]}
